Laboratory results reported in patent US20100075993A1, “SMALL MOLECULE INHIBITORS AGAINST WEST NILE VIRUS REPLICATION” (DREXEL UNIVERSITY, priority 2005, published 2010).

Key:
WNV replicon = WNV replicon luciferase assay in BHK 26.5 cells (HTS, re-test, IC50); type: cell-based, West Nile virus; conditions: for IC50: West Nile virus, 24 h; for Fold decrease (HTS) / Fold decrease (Re-test): luciferase activity; for Fold decrease (HTS): 10 μM compound, 24 hours, BHK 26.5 cells; for Fold decrease (Re-test): re-checked at a single 10 μM concentration
Experimental: Ten micromolar concentrations of a selected compound were incubated with BHK 26.5 cells expressing luciferase whose activity is dependent upon WNV replicon replication (FIG. 1A). Primary “hits” were defined by the ability to reduce the amount of luciferase enzyme activity by more than 50%, compared to controls.
To quantify and rank the activity of the 23 remaining compound “hits”, a serial dilution of each compound was incubated with WNV replicon cells to determine the concentration that inhibits 50% of the luciferase readout (IC50s). […] A number of compounds had significant effect only at the highest, 10 μM concentration. However, several compounds had IC50s between 2 and 5 (Table 3), which is very reasonable for primary HTS hits from a compound library. Only a few compounds could cause 90% inhibition in the replicon cells at the concentrations tested.
(§1) Replicon-harboring cells were plated 96-well plates at 10,000 cells per well in MEM plus 3% FBS. 24 hours after plating, compounds were added to the wells by a Robotic liquid handler (Biomek NX) to a final concentration of 10 μM and 1% DMSO. For each 96 well plate, A1 to A8 were left open, H1 to H4 contained 1% DMSO, H5-H8 contained Mycophenolic acid (Sigma-Aldrich, St. Louis, Mo.), which was included as positive controls. After 24 hours of treatment, the media were removed and the luciferase activity expressed in the replicon cells was quantified. When cyto-toxicity was measured, duplicate 96 well plates were plated with BHK 26.5 replicon cells. One plate was used for luciferase assay and one plate was used for measuring toxicity using MTT assay.
Luciferase assay was performed by using the STEADY GLO reagent (Promega Corp. Madison, Wis.) according to the manufacturer's recommendation with slight modifications. Briefly, the culture media from the 96 wells were removed by dumping on paper towels.
100 μl of a 1:1 mixture of luciferase regent and culture media were added to the plate. After 5-minute incubation, the luminescence was read on a TOPCOUNT (PerkinElmer, Wellesley, Mass.).

BHK 26.5 replicon cells = assay: MTT toxicity assay on BHK 26.5 replicon cells; type: cell-based; conditions: MTT assay
Description: The HTS strategy follows the flowchart outlined in FIG. 2. 35,000 compounds were screened from a chemical library described below, using a cutoff of 50% reduction in luminescence readout as the criteria for further study. Upon completion of the screen, approximately 1100 compounds were selected, making the hit rate of 3%. This is considerably higher than expected, implying many false positive and/or cytotoxic compounds. Nevertheless, the compounds were picked out from the “daughter” plates and re-checked at a single 10 μM concentration. In addition, a duplicate 96 well plates were also plated and the toxicity of the compounds was determined in an MTT assay. Upon completion of these assays, most compounds were disqualified as either false positives or being toxicity to cells. As a result, only a small number of compounds were further analyzed directly from the “mother” plate stock. After IC50 determination and secondary assay to rule out luciferase inhibitors, 23 “hits” were identified.
as §1
Compound toxicity was determined by MTT assay. For the MTT assay, the cell medium was removed and the monolayers were incubated with 100 μl/well of 0.5 mg/ml MTT for 6 h at 37° C. The MTT solution was then aspirated and 100 μl/well of the 10% SDS (in 0.01N HCl) was added, followed by spectrophotometric quantitation (570 nm) of the insoluble MIT reaction product.

WNV = WNV yield reduction assay (live virus) on BHK cells; type: cell-based, West Nile virus; conditions: live WNV
Experimental: The antiviral assay for the 309-F6 compounds was conducted on BHK cells. The virus produced in the presence of 1% DMSO or various concentrations of compounds was tittered on Vero cells. The amount of virus relative to the 1% DMSO control was plotted on the y-axis; the concentration of the compound 309F6 is shown in μM on the x-axis. Data from two independently treated wells (Test 1 and Test 2) are shown.
To measure activity against live WNV, BHK cells were plated in 96-well plates at a concentration of 12,000 cells/well. One day later the cells were infected with WNV for 1 h at an MOI of 0.05. The cells were then washed once and re-fed with fresh DMEM containing dilutions of the test compound. Plates were then incubated at 37° C. for 48 h, the supernatant collected and the WNV produced titered. For virus titration, Vero cells were plated in 96-well plates at 8000 cells/well and incubated overnight. The Vero cell monolayer were then infected for 1 h with various dilutions of the WNV supernatant, overlaid with media containing 0.6% tragacanth (ICN, CA) and incubated at 37° C. for 48 h. The culture media was then aspirated; the plate was rinsed, air-dried, and fixed with 50 μl/well acetone/methanol (50:50). Viral foci were detected for enumeration by immunostaining as described previously (15).

Row | SMILES | IC50 (WNV replicon) [µM] | Fold decrease (HTS) (WNV replicon) [Fold] | Fold decrease (Re-test) (WNV replicon) [Fold] | Toxicity (uM)* (BHK 26.5 replicon cells) [µM] | activity in the WNV infection assay (WNV)
1 | NC(=O)CCS(=O)(=O)c1ccc(Cl)cc1 [Compound 2-H7, 3-(4-Chloro-benzenesulfonyl)-propionamide] | 2.5 | 4.5 | 2.5 | >20 | 
2 | Cc1cccc(-n2nc3c(c2NC(=O)c2ccc(S(=O)(=O)N4CCCCC4)cc2)CSC3)c1 [Compound 18-H5, 4-(Piperidine-1-sulfonyl)-N-(2-m-tolyl-2,6-dihydro-4H-thieno[3,4-c]pyrazol-3-yl)-benzamide] | 7.5 | 2 | 2 | >30 | 
3 | Cc1ccc(-n2nc3c(c2NC(=O)C2CC2)CSC3)c(C)c1 [Compound 20-E7, Cyclopropanecarboxylic acid [2-(2,4-dimethyl-phenyl)-2,6-dihydro-4H-thieno[3,4-c]pyrazol-3-yl]-amide] | 10 | 2.3 | 2.4 | >10 | 
4 | O=C1Nc2ccc(S(=O)(=O)Nc3cc(Cl)ccc3Cl)c3cccc1c23 [Compound 24-C10, 2-Oxo-1,2-dihydro-benzo[cd]indole-6-sulfonic acid (2,5-dichloro-phenyl)-amide] | 10 | 2.5 | 1.8 | >10 | 
5 | Cc1ccc(S(=O)(=O)N2Cc3ccccc3CC2C(=O)Nc2ccc(Cl)cc2)cc1 (stereo not drawn) [Compound 42-E5, 2-(Toluene-4-sulfonyl)-1,2,3,4-tetrahydro-isoquinoline-3-carboxylic acid(4-chloro-phenyl)-amide] | 7.5 | 7 | 1.7 | >10 | 
6 | Cc1cc(C)c2nc(NC3=NC(c4ccccc4)CC(=O)N3)nc(C)c2c1 (stereo not drawn) [Compound 50-A8, 6-Phenyl-2-(4,6,8-trimethyl-quinazolin-2-ylamino)-5,6-dihydro-3H-pyrimidin-4-one] | 5 | 4.5 | 2.3 | >10 | 
7 | CCOC(=O)c1cnc2ccc(OCC)cc2c1NCc1ccccc1 [Compound 63-C10, 4-Benzylamino-6-ethoxy-quinoline-3-carboxylic acid ethyl ester] | 5 | 3.5 |  | >20 | 
8 | CC1CC(C)CN(S(=O)(=O)c2ccc(C3CCCCC3)cc2)C1 (stereo not drawn) [Compound 182-C2, 1-(4-Cyclohexyl-benzenesulfonyl)-3,5-dimethyl-piperidine] |  | 5 | 1.4 | >10 | 
9 | CCc1cccc(NC(=O)C(Cc2ccccc2)NS(=O)(=O)c2cccs2)c1 (stereo not drawn) [Compound 207-E5, N-(3-Ethyl-phenyl)-3-phenyl-2-(thiophene-2-sulfonylamino)-propionamide] | 10 | 5 | 2 | >10 | 
10 | COc1cc(OC)cc(C(=O)Nc2c3c(nn2-c2cccc(Cl)c2)CSC3)c1 [Compound 253-B10, N-[2-(3-Chloro-phenyl)-2,6-dihydro-4H-thieno[3,4-c]pyrazol-3-yl]-3,5-dimethoxy-benzamide] | 3 | 2 | 2 | >30 | 
11 | COc1ccc(-n2nc3c(c2NC(=O)c2ccc(OC(C)C)cc2)CSC3)cc1 [Compound 253-F8, 4-Isopropoxy-N-[2-(4-methoxy-phenyl)-2,6-dihydro-4H-thieno[3,4-c]pyrazol-3-yl]-benzamide] | 10 | 2.5 | 2 | >30 | 
12 | O=C(Nc1c2c(nn1-c1ccc(F)cc1)CSC2)c1ccc2c(c1)OCO2 [Compound 253-F11, Benzo[1,3]dioxole-5-carboxylic acid [2-(4-fluoro-phenyl)-2,6-dihydro-4H-thieno[3,4-c]pyrazol-3-yl]-amide] | 10 | 3 | 2 | >30 | 
13 | COc1ccc(-n2nc3c(c2NC(=O)c2ccc4c(c2)OCO4)CSC3)cc1 [Compound 253-G8, Benzo[1,3]dioxole-5-carboxylic acid [2-(4-methoxy-phenyl)-2,6-dihydro-4H-thieno[3,4-c]pyrazol-3-yl]-amide] | 2.5 | 2 | 2 | >30 | 
14 | CCOc1ccc(C(=O)Nc2c3c(nn2-c2ccc(OC)cc2)CSC3)cc1OCC [Compound 253-H8, 3,4-Diethoxy-N-[2-(4-methoxy-phenyl)-2,6-dihydro-4H-thieno[3,4-c]pyrazol-3-yl]-benzamide] | 10 | 2 | 1.5 | >30 | 
15 | CCC(C)NC(=O)c1cnn2c(O)c(Cc3ccccc3Cl)c(C)nc12 (stereo not drawn) [Compound 275-D9, 6-(2-Chloro-benzyl)-7-hydroxy-5-methyl-pyrazolo[1,5-a]pyrimidine-3-carboxylic acid sec-butylamide] | 7.5 | 10 | 2.9 | >10 | no detectable activity
16 | COc1ccc(CCC(=O)Nc2ccc(C(=N)NO)cc2)cc1 [Compound 331-E11, N-[4-(N-Hydroxycarbamimidoyl)-phenyl]-3-(4-methoxy-phenyl)-propionamide] | 5 | 3 | 1.5 | >30 | 
